# From patent US5405760A, “Process for producing recombinant McrBC endonuclease and cleavage of methylated DNA” (New England Biolabs, Inc., priority 1992, dated 1995)
# Read-outs that look alike come from different tables or passages of the source.
# T1: McrBC (Escherichia coli, UniProt P15005)
# T1 construct: made in house; host or cells: Escherichia coli BL21(DE3)/pER273 (McrBL) and BL21(DE3)/pER276 (McrC)
# T1 sequence (P15005 1-459): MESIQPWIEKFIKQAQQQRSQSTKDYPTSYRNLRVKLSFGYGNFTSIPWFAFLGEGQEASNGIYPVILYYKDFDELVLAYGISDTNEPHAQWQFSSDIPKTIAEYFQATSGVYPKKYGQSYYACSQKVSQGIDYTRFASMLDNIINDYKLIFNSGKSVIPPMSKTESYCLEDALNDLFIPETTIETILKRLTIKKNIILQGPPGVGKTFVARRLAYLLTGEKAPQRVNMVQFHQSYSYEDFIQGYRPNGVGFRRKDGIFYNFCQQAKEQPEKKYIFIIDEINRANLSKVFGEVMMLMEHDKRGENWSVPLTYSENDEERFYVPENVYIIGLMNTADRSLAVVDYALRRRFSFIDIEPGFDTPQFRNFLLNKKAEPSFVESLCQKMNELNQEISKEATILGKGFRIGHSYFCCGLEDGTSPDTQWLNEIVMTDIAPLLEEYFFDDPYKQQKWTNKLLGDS
# B1: McrC: component of McrBC endonuclease, product of the mcrC gene (protein, UniProt P15006 1-348, looked up)
# Type IV methyl-directed …: MEQPVIPVRNIYYMLTYAWGYLQEIKQANLEAIPGNNLLDILGYVLNKGVLQLSRRGLELDYNPNTEIIPGIKGRIEFAKTIRGFHLNHGKTVSTFDMLNEDTLANRIIKSTLAILIKHEKLNSTIRDEARSLYRKLPGISTLHLTPQHFSYLNGGKNTRYYKFVISVCKFIVNNSIPGQNKGHYRFYDFERNEKEMSLLYQKFLYEFCRRELTSANTTRSYLKWDASSISDQSLNLLPRMETDITIRSSEKILIVDAKYYKSIFSRRMGTEKFHSQNLYQLMNYLWSLKPENGENIGGLLIYPHVDTAVKHRYKINGFDIGLCTVNLGQEWPCIHQELLDIFDEYLK
# Key:
# McrBC = target: T1, McrBC; assay: McrBC cleavage of pBR322.AluI with titration of nucleotides; type: biochemical; conditions: for inhibition of McrBC reaction: in the presence of GTP (0.5 mM), analogue 5.0 to 0.04 mM; for support of cleavage of the substrate by nucleotide: nucleotides tested at 1 mM
# Method: The optimal buffer composition for both components of McrBC tested was 10 mM Tris-Cl, 10 mM magnesium chloride, 1 mM GTP (pH 7.5 at 25° C.).
# McrBC activity depends on the presence of GTP. […] McrBL Fraction IV and McrC Fraction Va (EXAMPLE I), were used, such that each reaction in each series contained 8 pmol McrBL, 8 pmol of McrC (combined activity on the same day of 5 units) and 0.07 pmol of pBR322.AluI in the presence of decreasing concentrations of nucleotides. Mixtures were made up without McrBL and without nucleotide; nucleotide was added to the first tube in the series; the samples were serially diluted in a manner similar to that described in EXAMPLE I and II; and reactions were begun by addition of McrBL and transfer to 37° C.
# [1] = Properties of the McrBC cleavage reaction (pH, ratio of components); type: biochemical; conditions: higher or lower ratios reduce cleavage activity
# Excerpt: (a) pH optimum: Activity is detectable when the pH of the reaction is lowered to about 5.8.
# Higher or lower ratios reduce cleavage activity.
# [2] = test system: McrBC (chromosomal wild-type operon) (Escherichia coli K-12); assay: cell_activity; conditions: methylated by M.HaeII in vivo; in vivo restriction; abolished by McrBS plasmid
# [3] = pH 7.5, read-out: relative activity
molecule,measurement,setting,value
Nc1ncnc2c1ncn2[C@@H]1O[C@H](COP(=O)(O)OP(=O)(O)NP(=O)(O)O)[C@@H](O)[C@H]1O [AMP-PNP],inhibition of McrBC reaction,McrBC,did not inhibit McrBC
same,inhibition of McrBC at high concentrations,McrBC; near 10 mM,partial inhibition
Nc1ncnc2c1ncn2[C@@H]1O[C@H](COP(=O)(O)OP(=O)(O)OP(O)(O)=S)[C@@H](O)[C@H]1O [ATP-gamma-S],inhibition of McrBC reaction,McrBC,did not inhibit the enzyme
Nc1ncnc2c1ncn2[C@@H]1O[C@H](COP(=O)(O)OP(=O)(O)OP(=O)(O)O)[C@@H](O)[C@H]1O [ATP],concentration at which inhibition of McrBC activity began,McrBC; 0.5 mM GTP (equimolar),0.5 mM
same,inhibition of McrBC reaction,McrBC,inhibited the reaction
same,activity at 620 µM,McrBC; [3],25%
same,activity at 1250 µM,McrBC; [3],< 10%
same,activity at 2500 µM,McrBC; [3],< 1%
Nc1nc2c(ncn2[C@@H]2O[C@H](COP(=O)(O)OP(=O)(O)O)[C@@H](O)[C@H]2O)c(=O)[nH]1 [GDP],support of cleavage of the substrate by nucleotide,McrBC,Neither GDP or GMP supported cleavage
Nc1nc2c(ncn2[C@@H]2O[C@H](COP(=O)(O)OP(=O)(O)NP(=O)(O)O)[C@@H](O)[C@H]2O)c(=O)[nH]1 [GMP-PNP],inhibition of the GTP-supported reaction,"McrBC; 5 mM analogue, 0.5 mM GTP",partial inhibition
same,activity at 1250 µM,"McrBC; pH 7.5, 0.5 mM GTP and 1.25 mM GMP-PNP, read-out: relative activity",50%
same,activity at 5000 µM,"McrBC; pH 7.5, 0.5 mM GTP and 5 mM GMP-PNP, read-out: relative activity",< 10%
Nc1nc2c(ncn2[C@@H]2O[C@H](COP(=O)(O)O)[C@@H](O)[C@H]2O)c(=O)[nH]1 [GMP],support of cleavage of the substrate by nucleotide,McrBC,Neither GDP or GMP supported cleavage
Nc1nc2c(ncn2[C@@H]2O[C@H](COP(=O)(O)OP(=O)(O)OP(O)(O)=S)[C@@H](O)[C@H]2O)c(=O)[nH]1 [GTP-gamma-S],relative activity,McrBC; 0.5 mM GTP and as little as 0.04 mM GTP-gamma-S,no activity was detectable
same,inhibition of McrBC reaction,McrBC,completely inhibit
Nc1nc2c(ncn2[C@@H]2O[C@H](COP(=O)(O)OP(=O)(O)OP(=O)(O)O)[C@@H](O)[C@H]2O)c(=O)[nH]1 [GTP],activity at 620 µM,"McrBC; 0.62 mM GTP, 10 mM Tris-Cl, 10 mM magnesium chloride, pH 7.5, read-out: relative activity",100%
same,support of the reaction by GTP alone,McrBC; 2.5 mM GTP,supported the reaction normally
same,effect of high levels of GTP on the enzyme,McrBC; 5 mM GTP,inhibit the enzyme
same,GTP concentration at which cleavage can be detected,"McrBC; lane h, lowest concentration",40 nM
same,activity at 40 µM,"McrBC; pH 7.5, 0.04 mM GTP, same buffer, read-out: relative activity",≤ 10%
same,activity at 310 µM,"McrBC; pH 7.5, 0.31 mM GTP, same buffer, read-out: relative activity",50%
"McrB: large polypeptide product of the mcrB gene, component of McrBC",Optimal ratio of McrB to McrC,[1],between one and ten molecules of McrB per molecule of McrC
phage lambda modified by M.HaeII,activity (fold reduction in plaques),[2],33
B1,Optimal ratio of McrC to sites,[1],between one and six molecules of McrC per cleavable site
